Patent US20260274894A1, “CYCLIC POLYPEPTIDE COMPOUND AND USE THEREOF” (BIVISION PHARMACEUTICALS, INC., priority 2023, published 2026)
Like-named read-outs stand apart in the source and are kept apart here. Numbered stars: 1 amine (or outer) side, 2 acyl side, 3 side chain; on linkers, the order of the positions; unused ones are H or OH. Bridge positions count the residues as written; N and C are the ends. Square brackets hold non-standard residues; d marks the D form. Side chains are listed from the residue outwards. Peptide text beside a SMILES is read from it. * marks the point of attachment. ξ: configuration not given here. NH(CH2)2(4-DOTA-piperazinyl) = O=C(O)CN1CCN(CC(=O)O)CCN(CC(=O)N2CCN(CCN*)CC2)CCN(CC(=O)O)CC1; NH(CH2)2O(CH2)2NHDOTA = O=C(O)CN1CCN(CC(=O)O)CCN(CC(=O)NCCOCCN*)CCN(CC(=O)O)CC1; X5 = CCCCCC(=O)N[C@@H](CSCc1cccc(C[*:2])c1)C(=O)N1CCC[C@@H](NC(=O)[*:1])C1; X6 = CCCCCC(=O)N[C@@H](CSCc1cccc(C[*:2])c1)C(=O)C1CCC[C@@H](CC(=O)[*:1])C1; DOTA = O=C(O)CN1CCN(CC(=O)O)CCN(CC(=O)*)CCN(CC(=O)O)CC1; Azetidine3carboxylic = O=C(C1CN([*:1])C1)[*:2]; mXylylene = c1cc(C[*:1])cc(C[*:2])c1; Cha = N[C@@H](CC1CCCCC1)C(=O)O; Dab = NCC[C@H](N)C(=O)O; ξQ = NC(=O)CCC(N)C(=O)O; Hexanoyl = CCCCCC(=O)*; AEEA = NCCOCCOCC(=O)O; CO = O=C([*:1])[*:2]; Ahx = NCCCCCC(=O)O; ξP = O=C(O)C1CCCN1; GABA = NCCCC(=O)O; ξC = NC(CS)C(=O)O; NHBu = CCCCN*

Experiments:
[1] = target: T1, FAP protein (Homo sapiens, UniProt Q12884); experiment: Biacore test of compound affinity to FAP protein; details: Biacore 8K, SA chip, 15° C., 1:1 binding model; read-out: pKD (FAP) (converted)
T1 construct: purchased Sinobiological
T1 sequence (Q12884 1-760): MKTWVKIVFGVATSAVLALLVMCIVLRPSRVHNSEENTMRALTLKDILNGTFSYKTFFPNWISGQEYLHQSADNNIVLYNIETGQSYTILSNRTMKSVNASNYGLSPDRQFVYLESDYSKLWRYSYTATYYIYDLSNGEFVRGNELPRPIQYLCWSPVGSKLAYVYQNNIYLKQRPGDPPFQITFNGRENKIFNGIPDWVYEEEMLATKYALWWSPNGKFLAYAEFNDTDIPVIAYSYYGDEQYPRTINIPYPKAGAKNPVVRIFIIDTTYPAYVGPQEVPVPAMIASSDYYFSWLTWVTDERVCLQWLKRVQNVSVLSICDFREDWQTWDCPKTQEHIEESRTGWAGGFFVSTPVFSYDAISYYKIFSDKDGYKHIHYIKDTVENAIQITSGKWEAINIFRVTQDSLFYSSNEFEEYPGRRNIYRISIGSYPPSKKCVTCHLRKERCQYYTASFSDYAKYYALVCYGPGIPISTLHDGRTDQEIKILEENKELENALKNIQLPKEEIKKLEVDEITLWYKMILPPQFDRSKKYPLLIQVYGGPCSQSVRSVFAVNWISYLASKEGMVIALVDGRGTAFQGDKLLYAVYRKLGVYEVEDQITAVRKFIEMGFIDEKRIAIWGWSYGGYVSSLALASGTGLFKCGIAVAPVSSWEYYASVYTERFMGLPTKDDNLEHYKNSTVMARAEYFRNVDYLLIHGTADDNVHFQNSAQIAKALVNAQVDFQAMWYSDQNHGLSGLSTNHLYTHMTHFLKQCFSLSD
Method: The Biacore 8K (Cytiva) instrument was used to detect ligand binding of the FAP protein (Sinobiological). FAP protein was captured on the SA chip. […] The sensor surface was conditioned by injecting 1M NaCl three consecutive times in 50 mM NaOH. After each ligand injection, additional cleaning was performed using isopropanol in 1M NaCl and 50 mM NaOH (flow path 1 and 2, flow rate of 10 μL/min, injection time of 60 s). […] The analyte was run under the following conditions: analysis temperature of 15° C., analysis step=all set to LMW kinetics; cycle type=single cycle (contact time of 90 s, dissociation time of 1800 s, flow rate of 30 μL/min, flow channels 1 and 2); channel detection=2-1. Data was evaluated using the Biacore Insight Evaluation Software, and the data were fitted to a 1:1 binding model. The Biacore results are shown in Table 2 below: pKD=−Log KD, where KD is the binding affinity of the compound to the FAP protein as measured by Biacore.

[2] = Determination of C Log P (n-octanol/water partition, gamma counts); assay type: physicochemical
Method: Two EP tubes were taken, and 100 μL of saturated n-octanol aqueous solution and 80 µL of pure water were added to each tube, respectively. […] After shaking and mixing for 2 hours, the tubes were centrifuged at room temperature at 2000 rpm/min for 5 minutes. 20 μL was taken from the upper layer (lipid layer) and lower layer (aqueous layer) of each tube, and gamma counts were measured.

[3] = tested on: HT1080 2 #; experiment: Therapeutic results of ^177Lu-labeled compound in tumor-bearing mice (tumor volume); assay type: in vivo, Balb/c Nude mice
Method: The body weight and tumor size were measured.

Which Kd [1] does the source give for `CCCCNC(=O)N[C@H]1CSCc2cccc(c2)CSC[C@@H](C(=O)N[C@@H](CCC(=O)NCCN2CCN(C(=O)CN3CCN(CC(=O)O)CCN(CC(=O)O)CCN(CC(=O)O)CC3)CC2)C(=O)O)NC(=O)[C@H](Cc2ccccc2)NC(=O)[C@H](CCC(N)=O)NC(=O)[C@H]([C@@H](C)O)NC(=O)C2CCCN2C(=O)C2CN(C2)C1=O` (stereo partly drawn) [JHDC50, nBu-urea-[Cys(3MeBn)-hhy39-Pro-Thr-Gln-Phe-Cys]-Glu-(aminoethylpiperazine-DOTA)-OH] ({NHBu-CO}-C[Azetidine3carboxylic][ξP]TQFCE(NH(CH2)2(4-DOTA-piperazinyl))-OH; linker 1-7 via mXylylene) here?
The Kd was 10 to 100 nM.

Which Kd [1] does the source give for `CCCCNC(=O)N[C@H]1CSCc2cccc(c2)CSCC(C(=O)N[C@@H](CCNC(=O)CCCNC(=O)CN2CCN(CC(=O)O)CCN(CC(=O)O)CCN(CC(=O)O)CC2)C(=O)O)NC(=O)[C@H](CC2CCCCC2)NC(=O)[C@H](CCC(N)=O)NC(=O)[C@H]([C@@H](C)O)NC(=O)[C@@H]2CCCN2C(=O)C2CN(C2)C1=O` (stereo partly drawn) [JHDC55, nBu-urea-[Cys(3MeBn)-hhy39-Pro-Thr-Gln-hhy34-Cys]-DABA-(ABA-DOTA)-OH] ({NHBu-CO}-C[Azetidine3carboxylic]PTQ[Cha][ξC][Dab]([GABA-DOTA])-OH; linker 1-7 via mXylylene) here?
Its Kd is less than 10 nM.

For `CCCCCC(=O)N[C@H]1CSCc2cccc(c2)CSC[C@@H](C(=O)N[C@@H](CCC(=O)NCCOCCNC(=O)CN2CCN(CC(=O)O)CCN(CC(=O)O)CCN(CC(=O)O)CC2)C(=O)O)NC(=O)[C@H](Cc2ccccc2)NC(=O)[C@H](CCC(N)=O)NC(=O)[C@H]([C@@H](C)O)NC(=O)[C@@H]2CCCN2C(=O)C2CN(C2)C1=O` [^177Lu -JHDC06, metal not drawn] (Hexanoyl-C[Azetidine3carboxylic]PTQFCE(NH(CH2)2O(CH2)2NHDOTA)-OH; linker 1-7 via mXylylene), which logP [2] is on record?
The logP was -2.69.

Which logP [2] does the source give for `CCCCCC(=O)N[C@H]1CSCc2cccc(c2)CSC[C@@H](C(=O)N[C@@H](CCCCNC(=O)CCCCCNC(=O)CN2CCN(CC(=O)O)CCN(CC(=O)O)CCN(CC(=O)O)CC2)C(=O)O)NC(=O)[C@H](CC2CCCCC2)NC(=O)C(CCC(N)=O)NC(=O)[C@H]([C@@H](C)O)NC(=O)C2CCCN2C(=O)C[C@@H]2CCCC(C2)C1=O` (stereo partly shown) [^177Lu -JHDC13, metal not drawn] ([ξP]T[ξQ][Cha]CK([Ahx-DOTA])-OH; linker N-5 via X6) here?
Its logP is -1.3.

With `CCCCCC(=O)N[C@H]1CSCc2cccc(c2)CSC[C@@H](C(=O)N[C@@H](CCCCNC(=O)COCCOCCNC(=O)CN2CCN(CC(=O)O)CCN(CC(=O)O)CCN(CC(=O)O)CC2)C(=O)O)NC(=O)[C@H](CC2CCCCC2)NC(=O)[C@H](CCC(N)=O)NC(=O)[C@H]([C@@H](C)O)NC(=O)[C@@H]2CCCN2C(=O)N[C@@H]2CCCN(C2)C1=O` [^177Lu -JHDC14, metal not drawn] (PTQ[Cha]CK([AEEA-DOTA])-OH; linker N-5 via X5) as the compound, how does the logP [2] read?
The logP was -1.39.

Which logP ([2]; read-out: ClogP) does the source give for `CCCCCC(=O)N[C@H]1CSCc2cccc(c2)CSC[C@@H](C(=O)N[C@@H](CCCCNC(=O)COCCOCCNC(=O)CN2CCN(CC(=O)O)CCN(CC(=O)O)CCN(CC(=O)O)CC2)C(=O)O)NC(=O)CNC(=O)[C@H](CC2CCCCC2)NC(=O)[C@H](CCC(N)=O)NC(=O)[C@H]([C@@H](C)O)NC(=O)C2CCCN2C(=O)N[C@@H]2CCCN(C2)C1=O` (stereo partly shown) [^177Lu -JHDC15, metal not drawn] ([ξP]TQ[Cha]GCK([AEEA-DOTA])-OH; linker N-6 via X5) here?
Its logP is -1.6.

For `CCCCCC(=O)N[C@H]1CSCc2cc(CSCCNC(=O)CN3CCN(CC(=O)O)CCN(CC(=O)O)CCN(CC(=O)O)CC3)cc(c2)CSC[C@@H](C(=O)O)NC(=O)[C@H](Cc2ccccc2)NC(=O)[C@H](CCC(N)=O)NC(=O)[C@H]([C@@H](C)O)NC(=O)[C@@H]2CCCN2C(=O)[C@@H]2CCCN2C1=O` [^177Lu-FAP-2286, metal not drawn, reference compound], which logP ([2]; read-out: ClogP) is on record?
Its logP is -2.74.

What about the “Tumor volume (mm^3)” value ([3]; Day 0) of the same compound?
The value was 466.80 ± 118.37 mm^3.

And the “Tumor volume (mm^3)” value ([3]; Day 2)?
Its value is 630.23 ± 96.79 mm^3.

And the “Tumor volume (mm^3)” value ([3]; Day 6)?
The value was 525.29 ± 100.39 mm^3.

And the “Tumor volume (mm^3)” value ([3]; Day 9)?
Its value is 1,041.55 ± 348.07 mm^3.

And the “Tumor volume (mm^3)” value ([3]; Day 13)?
The value was 2,345.02 ± 298.66 mm^3.

And the “Tumor volume (mm^3)” value ([3]; Day 16)?
Its value is 3,180.37 ± 697.35 mm^3.
